# Results as given in patent publication US20100125059A1, “1-BIARYLAZETIDINONE DERIVATIVE” (Teijin Pharma Limited, priority 2007, published 2010).
# Where two headings read alike, the source gives them in different places.
# Columns and labels:
# Caco-2 cells = assay: Cholesterol absorption inhibition assay (in vitro), [14C] cholesterol mixed micelles; type: cell-based; conditions: Homo sapiens, concentration of 12.5 μM, 24 hours, read-out: cholesterol absorption inhibitory activity
# In short: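 Caco-2 cells cultured 2 weeks, then incubated 24 h at 37° C with [14C] cholesterol mixed micelles (oleate, phosphatidylcholine, taurocholate) plus compound at 0.5 to 25 μM final. Lipids extracted, cholesteryl ester separated by TLC and quantified by imaging plate; inhibition as background-corrected percentage of solvent control.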
# [1] = test system: hamsters fed a high cholesterol diet; assay: Measurement of lipid lowering effect in hamsters fed a high cholesterol diet; type: in vivo, Male Golden Syrian hamsters; conditions: Mesocricetus auratus, po, 168 h, gavage once daily, 7 days
# In short: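 Male Golden Syrian hamsters (6/group) on 0.5% cholesterol diet, dosed by gavage once daily in corn oil at 0.01 to 10 mg/kg; serum and liver sampled 4 h after last dose. TC, TG and LDL-C measured enzymatically; effects expressed as % suppression versus control and normal-diet groups.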
# [2] = either alone or in the presence of a statin; cited from earlier work
# [3] = read-out: serum LDL-C lowering effect (suppression rate of an increase in serum LDL-C concentration)
# [4] = read-out: liver TC lowering effect (suppression rate of an increase in liver TC concentration)
# [5] = read-out: serum TC lowering effect (suppression rate of an increase in serum TC concentration)
smiles,measurement,setting,value
"O=C1[C@H](SC[C@H](O)c2ccc(Cl)cc2)[C@@H](c2ccc(O)cc2)N1c1ccc(-c2cncc(C(F)(F)F)c2)cc1 [Example 86, (3R,4R)-3-[(2R)-2-(4-chlorophenyl)-2-hydroxyethylthio]-4-(4-hydroxyphenyl)-1-[4-(5-trifluoromethylpyridin-3-yl)phenyl]azetidin-2-one]",inhibition at 12.5 µM,Caco-2 cells,≥ 60%
same,inhibition in vivo at 0.01 mg/kg,[1]; [3],≥ 30%
"O=C1[C@H](SC[C@H](O)c2ccc(Cl)cc2)[C@@H](c2ccc(O)cc2)N1c1ccc(-c2cncc(Cl)c2)cc1 [Example 87, (3R,4R)-3-[(2R)-2-(4-chlorophenyl)-2-hydroxyethylthio]-1-[4-(5-chloropyridin-3-yl)phenyl]-4-(4-hydroxyphenyl)azetidin-2-one]",inhibition at 12.5 µM,Caco-2 cells,≥ 60%
same,inhibition in vivo at 0.01 mg/kg,[1]; [4],≥ 30%
same,inhibition in vivo at 0.01 mg/kg,[1]; [3],≥ 30%
same,inhibition in vivo at 0.01 mg/kg,[1]; [5],≥ 30%
"O=C1[C@H](SC[C@H](O)c2ccc(F)cc2Cl)[C@@H](c2ccc(O)cc2)N1c1ccc(-c2cccnc2)cc1 [Example 90, (3R,4R)-3-[(2R)-2-(2-chloro-4-fluorophenyl)-2-hydroxyethylthio]-4-(4-hydroxyphenyl)-1-[4-(pyridin-3-yl)phenyl]azetidin-2-one]",inhibition at 12.5 µM,Caco-2 cells,≥ 60%
same,inhibition in vivo at 0.1 mg/kg,[1]; [3],≥ 50%
same,inhibition in vivo at 0.1 mg/kg,[1]; [5],≥ 50%
"Cc1ccc(-c2ccc(N3C(=O)[C@H](SC[C@H](O)c4ccc(Cl)cc4)[C@H]3c3ccc(O)cc3)cc2)cn1 [Example 91, (3R,4R)-3-[(2R)-2-(4-chlorophenyl)-2-hydroxyethylthio]-4-(4-hydroxyphenyl)-1-[4-(6-methylpyridin-3-yl)phenyl]azetidin-2-one]",inhibition at 12.5 µM,Caco-2 cells,≥ 60%
same,inhibition in vivo at 0.01 mg/kg,[1]; [5],≥ 30%
"O=C1[C@H](SC[C@H](O)c2ccc(Cl)cc2)[C@@H](c2ccc(O)cc2)N1c1ccc(-c2ccc(Cl)nc2)cc1 [Example 94, (3R,4R)-3-[(2R)-2-(4-chlorophenyl)-2-hydroxyethylthio]-1-[4-(6-chloropyridin-3-yl)phenyl]-4-(4-hydroxyphenyl)azetidin-2-one]",inhibition at 12.5 µM,Caco-2 cells,≥ 60%
same,inhibition in vivo at 0.1 mg/kg,[1]; [4],≥ 50%
"Cc1cc(O)ccc1[C@@H]1[C@@H](SC[C@H](O)c2ccc(F)cc2)C(=O)N1c1ccc(-c2cncc(C(F)(F)F)c2)cc1 [Example 99, (3R,4R)-3-[(2R)-2-(4-fluorophenyl)-2-hydroxyethylthio]-4-(4-hydroxy-2-methylphenyl)-1-[4-(5-trifluoromethylpyridin-3-yl)phenyl]azetidin-2-one]",inhibition at 12.5 µM,Caco-2 cells,≥ 60%
same,inhibition in vivo at 0.1 mg/kg,[1]; read-out: serum TG lowering effect (serum TG lowering rate),≥ 20%
"O=C1[C@H](CC[C@H](O)c2ccc(F)cc2)[C@@H](c2ccc(O)cc2)N1c1ccc(F)cc1 [Ezetimibe, (3R,4S)-3-[(3S)-3-(4-fluorophenyl)-3-hydroxypropyl]-1-(4-fluorophenyl)-4-(4-hydroxyphenyl)azetidin-2-one]",LDL cholesterol-lowering effect,[2],15-20%
